Consider 9 compounds from US10786521B2, “Methods and compositions for treatment of COPD diseases” (Shanghai KE Pharmaceutical Co., LTD, priority 2014, dated 2020).

In experiment [1] the test system is airway smooth muscle (bronchial rings). The experiment is described as follows: Relaxation of evoked isometric force of bronchial rings (wire myograph). It is filed as cell-based, mice. The conditions noted are these: for relaxation of MCh-evoked force at final concentration of 500 μM: 500 μM final, bronchi ring isometric assay; for IC50: MCh-evoked force, dose dependent; for relaxation of evoked force of airway smooth muscle / bronchial rings: in vitro, concentration not given. As for the experimental part: Briefly, the entire respiratory tree was rapidly removed and immersed in Krebs-Henseleit buffer (118.1 mM NaCl, 4.7 mM KCl, 1.2 mM MgSO4, 2.5 mM CaCl2, 1.0 mM NaH2PO4, 25 mM NaHCO3 and 11.1 mM glucose, pH 7.4). Bronchial rings, 2 mm in length, were isolated from pulmonary bronchi using a dissection microscope. Then the bronchial segments were mounted in a small-vessel wire myograph chamber (Danish Myo Technology, Aarhus, Denmark) by threading on two steel wires (40 μm in diameter) secured to two supports. One support was attached to a force transducer for measurements of isometric force development, and the other was attached to a micrometer controlling ring circumference. The preparation was kept in the chamber, immersed in 5 ml of Krebs-Henseleit solution, bubbled with 5% CO2 and 95% O2 and maintained at 37° C. The initial isometric tension of bronchial ring was set to 0 mN prior to equilibration for 20 min. The bronchial ring was then stretched in order to keep the force at 5 mN followed by an additional equilibration for 20 min. The isometric forces produced by bronchial ring was recorded with a data acquisition and analysis program (Danish Myo Technology, Aarhus, Denmark).
The robust relaxation effect and low risk of toxicity of KE on airway smooth muscle indicates its promising prospects for development. To identify the active ingredients of KE, the KE was divided into three parts including EtOAc phase, n-BuOH phase and water phase using EtOAc and n-BuOH sequential extraction. Upon the airway smooth muscle rings reached a relative steady contraction state evoked by MCh, accumulated volume of these three phases was added to assess the relaxation capacity. […] On the other hand, 1 μL of EtOAc phase just relaxed the rings to 90%.
Their dose-responsive effect on relaxation of airway smooth muscle was measured. When the force evoked by acetylcholine reached a relatively steady state, kudinosides were added to the bath in cumulative concentrations (0.1 μM, 0.3 μM, 1 μM, 3 μM, 10 μM, 30 μM). […] When the concentration of kudinoside D increased to 10 μM, about 50% of the force was relaxed. Strikingly, upon treatment with 30 μM of kudinoside D, more than 80% of the force was relaxed (FIG. 5B). Similarly, 30 μM of kudinoside A also led to 80% inhibition of evoked force. Note that the relaxation effect of kudinosides was completely reversible, because the relaxed muscles restored response to MCh after washing off.

The next experiment deals with human asthma (severe). The experiment is described as follows: Kudinoside A inhalation (atomization device) in two volunteers with severe asthma syndromes. The experiment is classed as in vivo. The note with it: volunteer; for time to release of dyspnea: kudinoside A 20 mM inhaled for 15 seconds, albuterol as control. As for the experimental part:
In order to test the effect of single substance in KE extract on asthma therapy, two volunteers with severe asthma syndromes were treated with kudinoside A (20 mM) with an atomization device.

For experiment [2], the system named is asthmatic airway constriction in acute asthma mouse model. The experiment is described as follows: Airway resistance (Rrs, FlexiVent) in OVA-induced, methacholine-challenged asthma mice. The conditions noted are these: for inhibition of airway constriction in vivo: mouse. The experiment is classed as in vivo, C57BL/6 mice. The protocol:
Asthma mice were established as reported previously. Briefly, six to eight-week-old female C57BL/6 mice were carried out by intraperitoneal injection of 100 μg ovalbumin and 4 mg Imject Alum (ThermoFisher Scientific) in total volume of 0.2 mL on days 0 and 14. These mice were then challenged with 1.5%-2% aerosolized ovalbumin for 1 h on days 24, 25 and 26. The efficacy of drugs was evaluated by measuring airway resistance in these mice 24 h after the last challenge.
(§1) The airway resistance was measured through an invasive method as described in previous reports. In brief, the mice were anesthetized with 240 mg/kg Avertin and the trachea was cannulated with an 18-gauge metal needle. Mechanical ventilation (FlexiVent; SCIREQ Inc., Montreal, Canada) was applied at a frequency of 150 breaths per minute, a tidal volume of 10 ml/kg, and positive end-expiratory pressure of 2.5 cm H2O. Prior to methacholine challenge, deep inflation was applied followed by administration of aerosolized PBS to obtain stabilization of airway resistance (Rrs, cmH2O·s/mL). The Rrs after PBS was considered to be the baseline. Then mice were challenged with sequential concentrations of methacholine with a dose of 2.0, 4.0, 8.0, 16, 32 and 64 mg/mL by an ultrasonic nebulizer until reaching bronchoconstrictive phase that was four to five folds greater than baseline. Three minutes after the last dose of methacholine inhalation, the reagents were delivered by the same ultrasonic nebulizer. The Rrs measurements were performed every 30 s throughout the experiments. The negative control for these studies was PBS, because all the solvents for reagents used here were PBS. As a positive control, albuterol (3 μg; Sigma), the most widely used β-agonist as an effective bronchodilator for asthma therapy, was used.
as §1, with “Acute asthma model mice were established as reported previously. Briefly, six to eight-week-old female C57BL/6 mice were carried out by intraperitoneal injection of 100 μg ovalbumin and 4 mg Imject Alum (ThermoFisher Scientific) in total volume of 0.2 mL on days 0 and 14. These mice were then challenged with 1.5%-2% aerosolized ovalbumin for 1 h on days 24, 25 and 26. The efficacy of drugs by measuring airway resistance in these mice 24 h was evaluated after the last challenge. The airway” for “The airway”

In another experiment the target is T1, L-type calcium channel (Mus musculus, UniProt Q01815).
T1 construct: endogenous in cells; host or cells: primary airway smooth muscle cells
The experiment is described as follows: Whole-cell patch clamp recording of VDCC currents in primary airway smooth muscle cells. The conditions noted are these: 50 μM; room temperature; pulses −60 to +50 mV from −80 mV. It is filed as cell-based. For orientation: The patch-clamp technique gives a direct electrical read-out from membranes.

What is called IC50 is the concentration that gives 50% inhibition.

Entries after “also recorded” stand apart in the source; their conditions may differ. Some results are limits rather than exact numbers.

T1 sequence (Q01815 whole entry): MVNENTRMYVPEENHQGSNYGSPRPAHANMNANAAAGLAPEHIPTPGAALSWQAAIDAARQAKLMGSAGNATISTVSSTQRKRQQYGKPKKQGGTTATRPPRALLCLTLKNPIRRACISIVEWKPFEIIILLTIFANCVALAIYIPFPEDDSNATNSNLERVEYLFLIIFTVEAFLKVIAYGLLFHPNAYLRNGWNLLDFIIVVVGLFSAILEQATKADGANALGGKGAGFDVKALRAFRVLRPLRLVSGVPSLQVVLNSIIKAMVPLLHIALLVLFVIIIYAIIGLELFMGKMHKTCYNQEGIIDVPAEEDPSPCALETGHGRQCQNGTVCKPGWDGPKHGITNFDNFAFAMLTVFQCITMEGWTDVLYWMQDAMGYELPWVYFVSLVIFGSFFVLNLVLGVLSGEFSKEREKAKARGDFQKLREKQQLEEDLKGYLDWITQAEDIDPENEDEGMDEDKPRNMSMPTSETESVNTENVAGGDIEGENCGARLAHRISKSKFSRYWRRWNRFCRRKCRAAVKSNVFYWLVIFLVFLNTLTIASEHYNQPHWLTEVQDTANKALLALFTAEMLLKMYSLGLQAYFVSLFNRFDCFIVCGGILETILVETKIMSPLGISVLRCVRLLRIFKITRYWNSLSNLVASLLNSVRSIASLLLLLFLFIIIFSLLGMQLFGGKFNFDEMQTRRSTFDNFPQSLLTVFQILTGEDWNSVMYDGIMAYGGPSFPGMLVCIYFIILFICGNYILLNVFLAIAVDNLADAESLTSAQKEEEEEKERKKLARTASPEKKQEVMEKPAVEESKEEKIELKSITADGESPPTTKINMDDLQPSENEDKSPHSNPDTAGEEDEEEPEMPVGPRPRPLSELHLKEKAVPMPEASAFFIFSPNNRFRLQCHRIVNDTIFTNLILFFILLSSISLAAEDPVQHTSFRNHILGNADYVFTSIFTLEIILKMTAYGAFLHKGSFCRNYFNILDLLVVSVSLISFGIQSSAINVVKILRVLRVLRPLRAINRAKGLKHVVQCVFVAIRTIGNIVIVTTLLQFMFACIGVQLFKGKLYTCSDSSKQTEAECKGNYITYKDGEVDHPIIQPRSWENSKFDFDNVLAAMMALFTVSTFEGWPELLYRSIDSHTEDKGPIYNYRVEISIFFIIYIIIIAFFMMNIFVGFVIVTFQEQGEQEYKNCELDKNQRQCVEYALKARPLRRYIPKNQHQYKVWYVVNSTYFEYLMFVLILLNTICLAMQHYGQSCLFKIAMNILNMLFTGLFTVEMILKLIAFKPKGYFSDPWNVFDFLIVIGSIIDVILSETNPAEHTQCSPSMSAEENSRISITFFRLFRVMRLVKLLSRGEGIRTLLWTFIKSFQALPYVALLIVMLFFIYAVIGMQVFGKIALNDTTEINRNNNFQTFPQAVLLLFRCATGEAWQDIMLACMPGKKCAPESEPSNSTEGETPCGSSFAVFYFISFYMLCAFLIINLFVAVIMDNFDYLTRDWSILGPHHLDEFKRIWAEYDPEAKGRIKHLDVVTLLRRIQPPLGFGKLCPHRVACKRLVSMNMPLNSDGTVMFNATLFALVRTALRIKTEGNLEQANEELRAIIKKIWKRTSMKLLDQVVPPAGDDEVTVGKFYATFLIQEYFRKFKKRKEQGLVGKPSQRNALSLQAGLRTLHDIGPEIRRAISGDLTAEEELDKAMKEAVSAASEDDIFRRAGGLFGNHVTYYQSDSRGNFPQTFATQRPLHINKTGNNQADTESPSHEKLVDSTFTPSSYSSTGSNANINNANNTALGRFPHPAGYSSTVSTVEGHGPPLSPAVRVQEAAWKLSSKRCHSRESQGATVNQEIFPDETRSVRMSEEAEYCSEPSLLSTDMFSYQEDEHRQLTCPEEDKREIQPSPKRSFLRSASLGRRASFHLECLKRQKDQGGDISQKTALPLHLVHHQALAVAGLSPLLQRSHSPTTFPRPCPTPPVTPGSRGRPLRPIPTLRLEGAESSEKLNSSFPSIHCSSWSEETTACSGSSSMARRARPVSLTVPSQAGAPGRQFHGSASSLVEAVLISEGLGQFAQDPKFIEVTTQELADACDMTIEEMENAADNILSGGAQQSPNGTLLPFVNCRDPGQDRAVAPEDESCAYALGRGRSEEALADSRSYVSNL
T1 sequence (O08532 25-1103 partner): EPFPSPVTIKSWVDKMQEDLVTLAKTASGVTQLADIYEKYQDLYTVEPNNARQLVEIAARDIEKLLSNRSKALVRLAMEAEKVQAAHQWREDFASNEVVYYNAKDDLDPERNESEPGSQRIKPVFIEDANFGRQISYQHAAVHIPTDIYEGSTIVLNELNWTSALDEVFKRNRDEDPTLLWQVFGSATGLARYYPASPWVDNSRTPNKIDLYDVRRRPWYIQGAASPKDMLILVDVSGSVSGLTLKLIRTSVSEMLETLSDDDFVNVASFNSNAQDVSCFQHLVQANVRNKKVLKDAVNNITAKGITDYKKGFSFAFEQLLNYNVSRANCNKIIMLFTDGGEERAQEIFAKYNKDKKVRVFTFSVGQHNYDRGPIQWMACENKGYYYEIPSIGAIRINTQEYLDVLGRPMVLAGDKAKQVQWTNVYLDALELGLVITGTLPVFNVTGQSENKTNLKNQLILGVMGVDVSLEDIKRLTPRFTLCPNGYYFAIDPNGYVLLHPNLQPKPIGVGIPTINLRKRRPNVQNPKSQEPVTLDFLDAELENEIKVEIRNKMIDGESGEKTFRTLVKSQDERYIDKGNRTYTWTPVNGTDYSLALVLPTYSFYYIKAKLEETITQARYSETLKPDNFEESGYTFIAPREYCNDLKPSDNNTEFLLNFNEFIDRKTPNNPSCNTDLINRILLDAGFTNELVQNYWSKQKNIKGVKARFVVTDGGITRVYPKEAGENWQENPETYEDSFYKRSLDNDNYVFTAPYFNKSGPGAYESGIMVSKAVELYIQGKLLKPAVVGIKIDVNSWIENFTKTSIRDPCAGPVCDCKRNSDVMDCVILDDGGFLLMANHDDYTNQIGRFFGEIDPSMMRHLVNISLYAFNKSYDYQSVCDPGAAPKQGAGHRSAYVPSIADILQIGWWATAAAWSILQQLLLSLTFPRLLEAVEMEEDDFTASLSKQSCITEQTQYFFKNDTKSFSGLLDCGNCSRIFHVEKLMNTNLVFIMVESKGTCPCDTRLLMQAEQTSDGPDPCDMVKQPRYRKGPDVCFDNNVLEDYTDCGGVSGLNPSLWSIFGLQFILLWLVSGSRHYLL
T1 sequence (P54285 whole entry partner): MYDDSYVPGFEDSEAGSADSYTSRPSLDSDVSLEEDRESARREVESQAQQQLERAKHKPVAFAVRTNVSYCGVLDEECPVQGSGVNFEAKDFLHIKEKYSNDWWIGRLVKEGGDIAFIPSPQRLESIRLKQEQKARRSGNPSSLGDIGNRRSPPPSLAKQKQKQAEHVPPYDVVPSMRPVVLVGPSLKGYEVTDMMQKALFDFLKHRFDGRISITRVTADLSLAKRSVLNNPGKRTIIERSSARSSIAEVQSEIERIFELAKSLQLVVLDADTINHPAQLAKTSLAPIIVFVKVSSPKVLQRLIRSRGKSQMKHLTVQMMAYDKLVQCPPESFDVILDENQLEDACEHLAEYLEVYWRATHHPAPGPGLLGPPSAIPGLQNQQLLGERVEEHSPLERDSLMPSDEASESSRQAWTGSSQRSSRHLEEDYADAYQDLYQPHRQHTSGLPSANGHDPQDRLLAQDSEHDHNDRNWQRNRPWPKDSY
Description for L-type calcium channel: So to identify the target of certain kudinosides, patch-clamp studies were used to examine the modulation of L-type calcium channel currents after Kudinosides treatment. In patch-clamp studies, whole-cell patch clamp recording of VDCC currents were performed at room temperature, in response to voltage pulses (−60 to +50 mV from a holding potential of −80 mV, 200 ms).

Consider `CC1(C)[C@@H](O)CC[C@]2(C)[C@H]3C(=O)C=C4[C@@H]5C[C@@](C)(C(=O)O)CC[C@]5(C)CC[C@@]4(C)[C@]3(C)CC[C@@H]12` [Glycyrrhetinic acid, reference compound], for which, in experiment [1], the “relaxation of MCh-evoked force at final concentration of 500 μM” value (shortened to “relaxation of MCh-evoked force”) is listed as “about 50%”. The IC50 in experiment [1] (Mus musculus) was 84.3 µM.
Consider `COC(=O)[C@@]1(C)CC[C@]2(C(=O)O)CC[C@]3(C)C(=CC[C@@H]4[C@@]5(C)C[C@H](O)[C@H](O)[C@@](C)(CO)[C@@H]5CC[C@]43C)[C@@H]2C1` [Phytolaccagenin, reference compound], for which the “relaxation of MCh-evoked force” value in experiment [1] was “about 50%”.
The same measure, in the same setting: the same measure for `C[C@@H]1O[C@@H](O[C@H]2[C@H](O[C@H]3[C@H](O[C@H]4CC[C@]5(C)[C@H]6CC=C7[C@@H]8CC(C)(C)CC[C@]8(C(=O)O)CC[C@@]7(C)[C@]6(C)CC[C@H]5C4(C)C)OC[C@H](O)[C@@H]3O)O[C@H](CO)[C@@H](O)[C@@H]2O)[C@H](O)[C@H](O)[C@H]1O` [Raddeanin A, reference compound]: “about 50%”.
As to `C[C@@H]1O[C@@H](O[C@@H]2[C@H](O)[C@@H](O)[C@H](O[C@H]3CC[C@@]4(C)C(CC[C@]5(C)C4C=C[C@]46OC[C@@]7(CCC(C)(C)CC74)[C@@H](O)C[C@]65C)C3(C)C)O[C@@H]2CO[C@@H]2O[C@H](CO)[C@@H](O)[C@H](O)[C@H]2O)[C@H](O)[C@H](O)[C@H]1O` (stereo partly drawn) [Saikosaponin C, reference compound], in experiment [1], the “relaxation of MCh-evoked force” value is recorded as “about 50%” and the IC50 is above 150 µM.
As for `C[C@@H]1O[C@@H](O[C@H]2[C@H](O[C@H]3[C@H](O[C@H]4CC[C@@]5(C)[C@@H](CC[C@]6(C)[C@@H]5CC=C5[C@@H]7CC(C)(C)C[C@@H](O)[C@]7(C)CC[C@]56C)[C@@]4(C)CO)O[C@H](C(=O)O)[C@@H](O)[C@@H]3O)O[C@H](CO)[C@H](O)[C@@H]2O)[C@H](O)[C@H](O)[C@H]1O` [Soyasaponin Bb, reference compound], the “relaxation of MCh-evoked force” value in experiment [1] is on record as “about 50%”.
Take `CC(C)(C)NCC(O)c1ccc(O)c(CO)c1` (stereo not drawn) [albuterol, reference compound]: in the experiment on human asthma (severe), the “duration of release of dyspnea” value is “could not be maintained overnight” and the “time to release of dyspnea” value was at most 3 min. In experiment [2] (3 μg inhaled, 1 minute, printed as 'led to a reduction of'), the “reduction of airway resistance at 1 minute after inhalation, 3 μg (positive control)” value was found to be 55.59±13.07%. Also, the “effect on asthmatic airway resistance” value in experiment [2] (n-BuOH phase 30 μg, albuterol 3 μg, inhaled after MCh challenge) is “significant reduction of airway resistance”.
For Kudinoside A, the “decrease of current generated by L-type calcium channel compared to vehicle” value on L-type calcium channel is recorded as “about 60%”. Further, in the experiment on human asthma (severe), the “duration of release of dyspnea” value is recorded as “maintained overnight” and the “time to release of dyspnea” value came out at 5 min. In addition, the “PEF value after inhalation” value in the experiment with human asthma (severe) (20 mM, 15 seconds inhalation, increased from 100) is on record as 320. In addition, the “force relaxed / inhibition of evoked force at 30 μM” value in experiment [1] (force evoked by acetylcholine, cumulative concentrations, 30 μM) stood at 80%. Moreover, the “relaxation of evoked force of airway smooth muscle / bronchial rings” value in experiment [1] is recorded as “significantly relaxed bronchial rings in a dose-dependent manner”.
As for Kudinoside C, in experiment [1], the “relaxation of evoked force of airway smooth muscle / bronchial rings” value was “strong relaxation effect on airway smooth muscles”. The “inhibition of airway constriction in vivo” value in experiment [2] is on record as “significant inhibition of airway constriction”.
The like results for Kudinoside H were, in that order, “fails to show effective bronchial ring relaxation; also recorded: little effect on relaxation in vitro” and “little inhibition activity of airway constriction in vivo”.
